Key:
CYP26A (P450RAI-1) = molecular target: T1, CYP26A (P450RAI-1) (Homo sapiens, UniProt O43174); assay: Cell-based inhibition of RA metabolism in CYP26A stably transfected HeLa cells; conditions: stably transfected HeLa cells, [3H]-RA, 3 hours at 37° C.; read-out: P450RAI-1 Whole cell IC50
T1 construct: expressed in transfected cells; host or cells: HeLa
T1 sequence (O43174 1-497): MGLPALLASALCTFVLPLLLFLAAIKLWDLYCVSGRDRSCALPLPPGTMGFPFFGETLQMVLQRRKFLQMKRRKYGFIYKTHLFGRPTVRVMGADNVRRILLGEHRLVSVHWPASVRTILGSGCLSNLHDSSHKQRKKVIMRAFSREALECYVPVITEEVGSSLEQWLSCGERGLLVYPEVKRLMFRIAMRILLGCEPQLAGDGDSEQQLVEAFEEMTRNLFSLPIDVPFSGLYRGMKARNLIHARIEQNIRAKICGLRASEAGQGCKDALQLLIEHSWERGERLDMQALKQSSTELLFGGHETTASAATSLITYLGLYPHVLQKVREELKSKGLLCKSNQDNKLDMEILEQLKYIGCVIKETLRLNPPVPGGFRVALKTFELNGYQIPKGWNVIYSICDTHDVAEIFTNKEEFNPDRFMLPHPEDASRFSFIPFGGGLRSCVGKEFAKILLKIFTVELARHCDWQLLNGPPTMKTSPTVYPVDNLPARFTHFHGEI
Procedure, shortened: (§1)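 Stably transfected HeLa cells (5×10^5/well) in MEM with 10% FBS and 0.05 μCi [3H]-RA, compounds at 10, 1 or 0.1 μM final, 3 h at 37° C. Retinoids extracted by modified Bligh-Dyer (methylene chloride); aqueous radioactivity counted; ID50 for 50% inhibition of RA metabolism derived from log-transformed data.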

CYP26B (P450RAI-2) = molecular target: T2, CYP26B (P450RAI-2) (Homo sapiens, UniProt Q9NR63); assay: Cell-based inhibition of RA metabolism in CYP26B stably transfected HeLa cells; conditions: stably transfected HeLa cells, [3H]-RA, 3 hours at 37° C.; read-out: P450RAI-2 Whole cell IC50
T2 construct: expressed in transfected cells; host or cells: HeLa
T2 sequence (Q9NR63 1-512): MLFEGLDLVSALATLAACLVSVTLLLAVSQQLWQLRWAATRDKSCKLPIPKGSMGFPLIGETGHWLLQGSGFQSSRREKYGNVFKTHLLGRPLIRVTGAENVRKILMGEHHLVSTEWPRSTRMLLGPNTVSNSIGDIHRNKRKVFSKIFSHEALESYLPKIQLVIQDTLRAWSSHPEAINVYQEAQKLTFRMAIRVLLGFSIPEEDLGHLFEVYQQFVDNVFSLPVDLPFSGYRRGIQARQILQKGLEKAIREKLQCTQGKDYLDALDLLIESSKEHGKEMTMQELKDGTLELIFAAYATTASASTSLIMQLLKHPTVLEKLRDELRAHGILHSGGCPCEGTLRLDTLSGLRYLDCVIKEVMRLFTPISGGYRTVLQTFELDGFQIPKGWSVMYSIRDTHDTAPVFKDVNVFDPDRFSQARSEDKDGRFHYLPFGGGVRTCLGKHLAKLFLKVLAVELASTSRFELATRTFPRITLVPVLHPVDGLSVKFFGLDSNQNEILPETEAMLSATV
Procedure, shortened: as §1

RAR β [1] = molecular target: T3, RAR β (Homo sapiens, UniProt P10826); assay: RAR β EC50/(efficacy); assay type: cell-based; conditions: for RAR β (EFFICACY): value in brackets of cell EC50/(EFFICACY)/Kd
T3 sequence (P10826 1-455): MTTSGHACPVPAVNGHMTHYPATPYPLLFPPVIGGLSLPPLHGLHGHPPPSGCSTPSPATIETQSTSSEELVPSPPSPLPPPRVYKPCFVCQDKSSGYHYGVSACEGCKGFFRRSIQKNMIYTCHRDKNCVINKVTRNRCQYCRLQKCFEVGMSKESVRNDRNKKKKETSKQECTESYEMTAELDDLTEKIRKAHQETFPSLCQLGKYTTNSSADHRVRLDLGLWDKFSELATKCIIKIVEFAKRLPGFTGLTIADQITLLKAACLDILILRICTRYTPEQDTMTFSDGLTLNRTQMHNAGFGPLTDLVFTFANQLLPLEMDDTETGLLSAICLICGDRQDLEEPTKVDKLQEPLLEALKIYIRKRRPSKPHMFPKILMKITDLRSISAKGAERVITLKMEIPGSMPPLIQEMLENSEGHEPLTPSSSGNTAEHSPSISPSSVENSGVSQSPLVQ

RAR γ [2] = molecular target: T4, RAR γ (Homo sapiens, UniProt P13631); assay: RAR γ EC50/(efficacy); assay type: cell-based; conditions: value in brackets of cell EC50/(EFFICACY)/Kd
T4 sequence (P13631 1-454): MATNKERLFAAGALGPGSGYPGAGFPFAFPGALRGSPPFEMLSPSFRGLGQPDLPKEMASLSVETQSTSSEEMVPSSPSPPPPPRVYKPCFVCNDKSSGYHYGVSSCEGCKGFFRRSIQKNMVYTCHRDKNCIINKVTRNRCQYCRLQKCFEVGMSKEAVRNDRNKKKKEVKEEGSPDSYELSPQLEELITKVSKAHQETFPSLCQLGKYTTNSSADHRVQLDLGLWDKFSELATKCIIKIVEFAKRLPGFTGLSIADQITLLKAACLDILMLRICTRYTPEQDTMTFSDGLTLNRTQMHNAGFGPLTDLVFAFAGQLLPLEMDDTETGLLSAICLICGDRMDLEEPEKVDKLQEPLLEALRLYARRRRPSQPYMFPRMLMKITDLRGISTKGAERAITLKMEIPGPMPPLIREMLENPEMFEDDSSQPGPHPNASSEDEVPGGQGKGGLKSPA

RAR α = molecular target: T5, RAR α (Homo sapiens, UniProt P10276); assay: RAR α Kd; assay type: binding; conditions: last item of cell EC50/(EFFICACY)/Kd
T5 sequence (P10276 1-462): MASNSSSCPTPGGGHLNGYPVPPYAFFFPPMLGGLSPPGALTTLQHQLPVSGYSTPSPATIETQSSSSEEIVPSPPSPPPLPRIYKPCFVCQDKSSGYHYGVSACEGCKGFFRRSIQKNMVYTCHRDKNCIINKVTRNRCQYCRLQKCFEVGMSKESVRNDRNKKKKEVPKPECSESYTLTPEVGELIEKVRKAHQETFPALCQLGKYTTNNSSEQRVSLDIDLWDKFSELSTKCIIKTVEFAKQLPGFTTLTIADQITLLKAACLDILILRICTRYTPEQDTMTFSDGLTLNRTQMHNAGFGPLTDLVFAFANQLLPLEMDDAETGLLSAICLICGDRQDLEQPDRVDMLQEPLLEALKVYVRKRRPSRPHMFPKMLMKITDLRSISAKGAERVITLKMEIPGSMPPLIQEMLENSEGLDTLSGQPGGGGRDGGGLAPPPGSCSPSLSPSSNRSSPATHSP

RAR β [3] = molecular target: T3, RAR β; assay: RAR β Kd; assay type: binding; conditions: last item of cell EC50/(EFFICACY)/Kd
RAR γ [4] = molecular target: T4, RAR γ; assay: RAR γ Kd; assay type: binding; conditions: last item of cell EC50/(EFFICACY)/Kd

Row | Compound | IC50 (CYP26A (P450RAI-1)) [µM] | IC50 (CYP26B (P450RAI-2)) [µM] | RAR β (EFFICACY) (RAR β [1]) | RAR γ (EFFICACY) (RAR γ [2]) | Kd (RAR α) [µM] | Kd (RAR β [3]) [µM] | Kd (RAR γ [4]) [µM] | EC50 (RAR β [1]; first item of cell EC50/(EFFICACY)/Kd) [µM]
1 | C/C(=C\c1ccc(C#Cc2cc(C3CC3)c3c(c2)C(C)(C)CC2(CC2)O3)cc1)C(=O)O [Compound 3] | 0.25 | > 10 | 15 | 10 | > 10 | 0.52 | 6.04 | 
2 | CC1(C)CC2(CC2)Oc2c(C3CC3)cc(C#Cc3ccc(/C=C(\Cl)C(=O)O)cc3)cc21 [Compound 4] | 0.12 | > 10 | 20 | 15 | > 10 | > 10 | > 10 | 
3 | COc1cc(C#CC2=CCC(/C=C(\C)C(=O)O)C=C2)cc2c1C(N(C)C1CC1)CCC2(C)C (stereo not drawn) [Compound 30, (E)-3-{4-[5-(Cyclopropyl-methyl-amino)-4-methoxy-8,8-dimethyl-5,6,7,8-tetrahydro-naphthalen-2-ylethynyl]-cyclohexa-2,4-dienyl}-2-methyl-acrylic acid] | 0.18 | > 10 | 15 |  | > 10 | > 10 | > 10 | 
4 | CN(Cc1cccc(C#Cc2ccc(/C=C/C(=O)O)cc2)c1)C1CC1 [Compound 31, (E)-3-(4-{3-[(Cyclopropyl-methyl-amino)-methyl]-phenylethynyl}-phenyl)-acrylic acid] | > 10 | 0.6 | 25 |  | > 10 | > 10 | > 10 | 
5 | C/C(=C\c1ccc(C#Cc2cccc(CN(C)C3CC3)c2)cc1)C(=O)O [Compound 33, 3-(4-{3-[(Cyclopropyl-methyl-amino)-methyl]-phenylethynyl}-phenyl)-2-methyl-acrylic acid] | > 10 | 1 | 30 | 10 | 3.25 |  | > 10 | 
6 | Cc1ccc(CN(C)C2CC2)cc1C#Cc1ccc(/C=C/C(=O)O)cc1 [Compound 34, (E)-3-(4-{5-[(Cyclopropyl-methyl-amino)-methyl]-2-methyl-phenylethynyl}-phenyl)-acrylic acid] | > 10 | 0.12 | 20 |  | 5.65 | 3.49 | 8.53 | 

The remaining lines, values ahead:

Row | IC50 (CYP26A (P450RAI-1)) [µM] | IC50 (CYP26B (P450RAI-2)) [µM] | RAR β (EFFICACY) (RAR β [1]) | RAR γ (EFFICACY) (RAR γ [2]) | Kd (RAR α) [µM] | Kd (RAR β [3]) [µM] | Kd (RAR γ [4]) [µM] | EC50 (RAR β [1]; first item of cell EC50/(EFFICACY)/Kd) [µM] | Compound
7 | 0.016 | > 10 |  | 30 | > 10 | > 10 | > 10 |  | CC(C)Oc1cc(C#Cc2ccc(CC(=O)O)cc2)cc2c1C(N(C)C1CC1)CCC2(C)C (stereo not drawn) [Compound 41, {4-[5-(Cyclopropyl-methyl-amino)-4-isopropoxy-8,8-dimethyl-5,6,7,8-tetrahydro-naphthalen-2-ylethynyl]-phenyl}-acetic acid]
8 | 0.7 |  | 40 | 25 |  |  |  |  | CN(C1CC1)C1CCC(C)(C)c2cc(C#Cc3ccc(/C=C/C(=O)O)cc3)cc(C3CC3)c21 (stereo not drawn) [Compound 48, 3-{4-[4-Cyclopropyl-5-(cyclopropyl-methyl-amino)-8,8-dimethyl-5,6,7,8-tetrahydro-naphthalen-2-ylethynyl]-phenyl}-acrylic acid]
9 | 0.2 | > 10 | 5 |  | > 10 | > 10 | > 10 |  | CC(C(=O)O)c1ccc(C#Cc2ccc3c(c2)C(C)(C)CCC3N(C)C2CC2)cc1 (stereo not drawn) [Compound 51, 2-{4-[5-(Cyclopropyl-methyl-amino)-8,8-dimethyl-5,6,7,8-tetrahydro-naphthalen-2-ylethynyl]-phenyl}-propionic acid]
10 | 0.4 | > 10 | < 5 |  | > 10 | > 10 | > 10 |  | CN(C1CC1)C1CCC(C)(C)c2cc(C#Cc3ccc(C(C)(C)C(=O)O)cc3)ccc21 (stereo not drawn) [Compound 52, 2-{4-[5-(Cyclopropyl-methyl-amino)-8,8-dimethyl-5,6,7,8-tetrahydro-naphthalen-2-ylethynyl]-phenyl}-2-methyl-propionic acid]
11 | 0.4 |  | 50 | 35 | 6.03 | 4.98 | 7.74 |  | CCOC(=O)C1CCC(C)(C)c2cc(C#Cc3ccc(CC(=O)O)cc3)c(C)cc21 (stereo not drawn) [Compound 57, 6-(4-Carboxymethyl-phenylethynyl)-4,4,7-trimethyl-1,2,3,4-tetrahydro-naphthalene-1-carboxylic acid ethyl ester]
12 | 3.5 | > 10 | 25 |  | > 10 | 4.61 | > 10 |  | CCOC(=O)C1=C(C)CC(C)(C)c2cc(C#Cc3ccc(CC(=O)O)cc3)ccc21 [Compound 58, 6-(4-Carboxymethyl-phenylethynyl)-2,4,4-trimethyl-3,4-dihydro-naphthalene-1-carboxylic acid ethyl ester]
13 | 1.2 | > 10 | 35 |  | > 10 | 2.86 | > 10 |  | CCOC(=O)C1=C(C)CC(C)(C)c2cc(C#Cc3ccc(CC(=O)O)c(F)c3)ccc21 [Compound 59, 6-(4-Carboxymethyl-3-fluoro-phenylethynyl)-2,4,4-trimethyl-3,4-dihydro-naphthalene-1-carboxylic acid ethyl ester]
14 | > 10 | 0.68 | 37 |  | > 100 | 11 | > 100 | 0.853 | C#Cc1cc(NC(=O)Nc2ccc(C(=O)O)c(F)c2)cc2c1OC(C)(C)CC2(C)C [Compound 63, 4-[3-(8-Ethynyl-2,2,4,4-tetramethyl-chroman-6-yl)-ureido]-2-fluoro-benzoic acid]

— patent US7468391B2, “Methods for treating retinoid responsive disorders using selective inhibitors of CYP26A and CYP26B” (Allergan, Inc., priority 2003, dated 2008)
